Results: patent publication US20240083845A1 (priority 2020, published 2024)

Molecular target: SARS-CoV-2 Mpro (Severe acute respiratory syndrome coronavirus 2, UniProt P0DTD1)
Experiment: SARS-CoV-2 Mpro enzyme assay (FRET)
Format: biochemical
Conditions: FRET substrate Dabcyl-KTSAVLQSGFRKM-E(Edans)-Amide, 20 nM enzyme, 30 min preincubation at 30° C., mean n=2; read-out: SARS-CoV-2 Mpro enzyme assay pKi (converted)

With `O=C(/C=C/c1ccc(Cl)cc1F)N[C@@H](CC1CCC1)C(=O)NC(C[C@@H]1CCNC1=O)C(=O)C(=O)NC1CC1` (stereo partly drawn) [Example 31, 3-((S)-2-((E)-3-(4-chloro-2-fluorophenyl)acrylamido)-3-cyclobutylpropanamido)-N-cyclopropyl-2-oxo-4-((S)-2-oxopyrrolidin-3-yl)butanamide] the Ki was 25.1 nM.
`CC[C@@H](CC(=O)N[C@@H](CC1CC1)C(=O)NC(C[C@@H]1CCNC1=O)C(=O)C(=O)NC1CC1)c1ccccc1` (stereo partly drawn) [Example 32, (3 S)-N-((2S)-3-cyclopropyl-1-((4-(cyclopropylamino)-3,4-dioxo-1-((S)-2-oxopyrrolidin-3-yl)butan-2-yl)amino)-1-oxopropan-2-yl)-3-phenylpentanamide] showed a Ki of 12.6 nM.
Molecule `CC[C@H](CC(=O)N[C@@H](CC1CC1)C(=O)NC(C[C@@H]1CCNC1=O)C(=O)C(=O)NC1CC1)c1ccccc1` (stereo partly drawn) [Example 33, (3R)-N-((2S)-3-cyclopropyl-1-((4-(cyclopropylamino)-3,4-dioxo-1-((S)-2-oxopyrrolidin-3-yl)butan-2-yl)amino)-1-oxopropan-2-yl)-3-phenylpentanamide] has a Ki of 25.1 nM.
